Patent publication US5324502A, “Radiopharmaceuticals for imaging the heart” (priority 1992, dated 1994)
Read-outs that look alike come from different tables or passages of the source.

Key:
[1] = rat, i.v.
Experimental: The gallium-67 complexes are prepared by ligand exchange from gallium-67 chloride, employing the tris(acetylacetonato)gallium(III) complex as an intermediate. The Ga-67 acetylacetonate in ethanol is reacted with the chelating ligand or ligand precursor at elevated temperature to form rapidly the desired gallium radiopharmaceutical. […] The biodistribution of several radiopharmaceuticals was determined in rats following intravenous injection using techniques previously described (M. A. Green, Nuclear Medicine and Biology 14:59-61, 1987; E. John and M. A. Green, J. Medicinal Chemistry, 33:1764-1770, 1990).
Under ether anesthesia, 1 to 3 μCi (0.1-0.2 mL) of no-carrier-added Ga-67 compound was administered by bolus injection into the femoral vein of male Sprague-Dawley rats. The ether anesthetized rats were sacrificed by decapitation at given time intervals post-injection, organs of interest were removed, weighed, and the gallium-67 activity counted. The biodistribution was calculated as a percentage of the injected dose per gram of tissue and percentage of injected dose per organ for each sample.

[2] = Octanol/water partition coefficient of radiolabeled gallium complexes; assay type: physicochemical; conditions: octanol/tris buffer, pH 7
Experimental: Octanol/water partition coefficients were measured by vortex mixing 1 mL of 1-octanol and 1 mL of isotonic Tris buffer (pH 7.0) with a 1-5 μL sample of the radiolabeled gallium complex. Following centrifugation at >1200 g for 5 minutes, the octanol and aqueous phases were sampled and counted in an automatic well counter.

CCN(CC)c1ccc(C=NCCCNCCNCCCN=Cc2ccc(N(CC)CC)cc2[O-])c([O-])c1.[67Ga+3] [(4-deaSal)2 BAPEN]
% Injected Dose per Gram Tissue, Blood ([1]; 1 min): 0.80 ± 0.01 % Injected Dose per Gram Tissu
% Injected Dose per Gram Tissue, Brain ([1]; 1 min): 0.04 ± 0.01 % Injected Dose per Gram Tissu
% Injected Dose per Gram Tissue, Heart ([1]; 1 min): 0.98 ± 0.07 % Injected Dose per Gram Tissu
% Injected Dose per Gram Tissue, Kidney (one) ([1]; 1 min): 7.22 ± 0.48 % Injected Dose per Gram Tissu
% Injected Dose per Gram Tissue, Liver ([1]; 1 min): 4.15 ± 0.25 % Injected Dose per Gram Tissu
% Injected Dose per Gram Tissue, Lungs ([1]; 1 min): 1.16 ± 0.06 % Injected Dose per Gram Tissu
% Injected Dose per Gram Tissue, Spleen ([1]; 1 min): 1.22 ± 0.47 % Injected Dose per Gram Tissu
% injected dose in heart, 1 min ([1]; 1 min, preliminary studies): 0.69 ± 0.05 % injected dose
% Injected Dose Per Gram of Tissue, Blood ([1]; 5 min): 0.39 ± 0.05 % Injected Dose Per Gram of Tissue
% Injected Dose Per Gram of Tissue, Brain ([1]; 5 min): 0.02 ± 0.01 % Injected Dose Per Gram of Tissue
% Injected Dose Per Gram of Tissue, Heart ([1]; 5 min): 0.91 ± 0.06 % Injected Dose Per Gram of Tissue
% Injected Dose Per Gram of Tissue, Kidney (1) ([1]; 5 min): 7.11 ± 0.89 % Injected Dose Per Gram of Tissue
% Injected Dose Per Gram of Tissue, Liver ([1]; 5 min): 3.96 ± 0.28 % Injected Dose Per Gram of Tissue
% Injected Dose Per Gram of Tissue, Lungs ([1]; 5 min): 0.89 ± 0.19 % Injected Dose Per Gram of Tissue
% Injected Dose Per Gram of Tissue, Spleen ([1]; 5 min): 1.19 % Injected Dose Per Gram of Tissue
% Injected Dose per Gram Tissue, Blood ([1]; 15 min): 0.20 ± 0.03 % Injected Dose per Gram Tissu
% Injected Dose per Gram Tissue, Brain ([1]; 15 min): 0.02 ± 0.00 % Injected Dose per Gram Tissu
% Injected Dose per Gram Tissue, Heart ([1]; 15 min): 0.90 ± 0.06 % Injected Dose per Gram Tissu
% Injected Dose per Gram Tissue, Kidney (one) ([1]; 15 min): 6.82 ± 0.53 % Injected Dose per Gram Tissu
% Injected Dose per Gram Tissue, Liver ([1]; 15 min): 3.21 ± 0.25 % Injected Dose per Gram Tissu
% Injected Dose per Gram Tissue, Lungs ([1]; 15 min): 0.70 ± 0.07 % Injected Dose per Gram Tissu
% Injected Dose per Gram Tissue, Spleen ([1]; 15 min): 1.27 ± 0.17 % Injected Dose per Gram Tissu
% Injected Dose per Gram Tissue, Blood ([1]; 120 min): 0.10 ± 0.01 % Injected Dose per Gram Tissu
% Injected Dose per Gram Tissue, Brain ([1]; 120 min): 0.02 ± 0.01 % Injected Dose per Gram Tissu
% Injected Dose per Gram Tissue, Heart ([1]; 120 min): 0.92 ± 0.10 % Injected Dose per Gram Tissu
% Injected Dose per Gram Tissue, Kidney (one) ([1]; 120 min): 5.69 ± 0.75 % Injected Dose per Gram Tissu
% Injected Dose per Gram Tissue, Liver ([1]; 120 min): 1.07 ± 0.10 % Injected Dose per Gram Tissu
% Injected Dose per Gram Tissue, Lungs ([1]; 120 min): 0.53 ± 0.06 % Injected Dose per Gram Tissu
% Injected Dose per Gram Tissue, Spleen ([1]; 120 min): 0.99 ± 0.18 % Injected Dose per Gram Tissu
% injected dose in heart, 2 h ([1]; 2 h, preliminary studies): 0.65 ± 0.05 % injected dose
Heart/Blood ([1]; ratio, 1 min): 1.22 ± 0.08
Heart/Liver ([1]; ratio, 1 min): 0.24 ± 0.03
Heart/Lungs ([1]; ratio, 1 min): 0.85 ± 0.10
Heart/Blood ([1]; ratio, 5 min): 2.36 ± 0.25
Heart/Liver ([1]; ratio, 5 min): 0.23 ± 0.02
Heart/Lung ([1]; ratio, 5 min): 1.05 ± 0.19
Heart/Blood ([1]; ratio, 15 min): 4.54 ± 0.31
Heart/Liver ([1]; ratio, 15 min): 0.28 ± 0.04
Heart/Lungs ([1]; ratio, 15 min): 1.29 ± 0.05
Heart/Blood ([1]; ratio, 120 min): 9.21 ± 1.12
Heart/Liver ([1]; ratio, 120 min): 0.86 ± 0.18
Heart/Lungs ([1]; ratio, 120 min): 1.74 ± 0.35
log P [2]: 2.44
